The results in this text go back to PubChem BioAssay (NCI).

Common to all, as to test: inhibition of tumour cell growth, NCI panel, 48 h
The subject of assay [1] is CCRF-CEM leukemia.
Assay [2] deals with HCT-116 colon.
In assay [3] the test system is HOP-92 NSCLC.
For assay [4], the system named is MALME-3M melanoma.
In assay [5] the test system is NCI-H522 lung.
In assay [6] the test system is OVCAR-3 ovarian.
Assay [7] concerns OVCAR-5 ovarian.
In assay [8] the test system is SF-539 CNS.
Assay [9] deals with SN12C renal.
Assay [10] deals with SR leukemia.

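Dose response: 5 concentrations. Exposure: 48 h. Format: 96-well plates. Endpoint: linear interpolation; highest concentration if not reached. GI50: concentration for 50% inhibition of growth. At the TGI there is no net growth.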

With `CCC[CH2][Sn]1([CH2]CCC)[O]CC(CN2CCCC2)[O]1` (stereo not drawn), the GI50 in assay [1] is 3.33 µM; in assay [2], 16.9 µM; in assay [3], 8.45 µM; in assay [4], 4.59 µM; in assay [5], 3.32 µM; in assay [6] it was 13 µM. Also, the GI50 in assay [7] was 12.9 µM; in assay [8] it was 16.9 µM; in [9], 16.7 µM; in assay [10], 10.4 µM. The TGI in [1] amounted to 21.3 µM; in assay [2], 30.6 µM; in assay [3], 23.8 µM; in assay [4], 17.4 µM; in [5], 11.1 µM; in [6], 25.7 µM. For the same compound, the TGI in assay [7] was 27.7 µM; in assay [8], 38.9 µM; in assay [9], 31 µM; in assay [10], 39.5 µM.

With `NCCCCN(CCCN)/[N+]([O-])=N\O`, the TGI in assay [1], in assay [2], in assay [3], in assay [4], in assay [5] and in [6] was more than 100 µM in each case. The TGI in assay [7], in [8], in [9] and in assay [10] was more than 100 µM throughout.

In the case of `Cc1cn(C2CC(O)C(CO)O2)c(=O)n2nnnc12` (stereo not drawn), the TGI in assay [1], in assay [2], in assay [3], in assay [4], in assay [5] and in assay [6] was more than 100 µM throughout. In addition, the TGI in assay [7], in [8] and in assay [10] was more than 100 µM each time.

In the case of `COc1cc(-c2ccc3c(c2)NC(=O)/C3=C\c2ccc[nH]2)ccc1O`, the GI50 in [1] is 0.0176 µM; in assay [2] it was 0.0228 µM; in [3], more than 24.7 µM; in [4], 2.65 µM; in assay [5], 0.00747 µM; in assay [6], 0.0176 µM. Besides, the GI50 in assay [7] is 0.799 µM; in assay [8], 0.0156 µM; in assay [9] it was 0.0423 µM; in assay [10] it was 0.014 µM. In addition, the TGI in [1] was more than 16.7 µM; in assay [2], more than 50 µM; in assay [3], more than 50 µM; in assay [4], more than 50 µM; in assay [5] it was more than 50 µM; in assay [6] it was more than 50 µM. Besides, the TGI is more than 50 µM in [7], 0.236 µM in [8], more than 50 µM in [9] and more than 30.5 µM in assay [10].

On to `Cc1nc(N)sc1C(=O)/C=C\c1ccc2c(c1)OCO2`, for which the TGI in [1], in [2], in assay [3], in assay [4], in [5] and in assay [6] was more than 100 µM each time. Besides, the TGI in assay [7], in [8], in assay [9] and in assay [10] was more than 100 µM each time.

Regarding `COc1cc2c(cc1OC)C(CC(=O)NN=C(C)C)NCC2` (stereo not drawn), the TGI in assay [1], in [2], in assay [3], in assay [4], in [5] and in assay [6] was more than 100 µM throughout. The TGI in assay [7], in [8], in assay [9] and in assay [10] was more than 100 µM each time.

As for `COC(=O)C1=C(C)N(NC(=O)OC(C)(C)C)C(=O)C1=P(c1ccccc1)(c1ccccc1)c1ccccc1`, the TGI in assay [1], in assay [2], in [3], in [4], in assay [5] and in [6] was more than 100 µM throughout. For the same compound, the TGI in [7], in assay [8], in assay [9] and in assay [10] was more than 100 µM in each case.

For `Cc1cc(C(=O)Nc2ncc(Cc3cccc(C(F)(F)F)c3)s2)c2ccccc2n1`, the GI50 is 2.54 µM in [1]; 1.29 µM in assay [2]; 2.56 µM in [3]; 3.51 µM in assay [4]; 2.33 µM in assay [5]; 2.63 µM in assay [6]. Further, the GI50 in [9] is 3.62 µM; in assay [10] it was 2.02 µM. In addition, the TGI in [1], in assay [2], in [3], in assay [4], in assay [5] and in assay [6] was more than 100 µM throughout. The TGI in [9] and in assay [10] was more than 100 µM throughout.

`CC1CC[C@]2(C(=O)O)CCC3(C)C(=CC(=O)C4[C@@]5(C)CCC(=O)C(C)(C)C5CC[C@]43C)[C@@H]2[C@H]1C` (stereo partly drawn): the TGI came out at 58.9 µM in [1]; 43 µM in assay [2]; 73.2 µM in [3]; 80.3 µM in [4]; 71.3 µM in assay [5]; 44 µM in [6]. Also, the results for the TGI in [8], in assay [9] and in assay [10] were 44.1 µM, more than 100 µM and 37.5 µM, respectively.

For `COc1cc2nc3cc([N+](=O)[O-])ccc3c(NCCCNCCO)c2cc1OC`, the GI50 was 0.211 µM in assay [1]; 0.115 µM in assay [2]; 0.148 µM in assay [3]; 0.189 µM in [4]; 0.041 µM in assay [5]; 0.244 µM in assay [6]. The GI50 in assay [7] is 0.22 µM; in assay [8], 0.191 µM; in assay [10] it was 0.238 µM. Also, the TGI turned out to be 1.41 µM in assay [1]; 0.385 µM in assay [2]; 0.438 µM in assay [3]; 0.359 µM in assay [4]; 0.213 µM in [5]; 0.622 µM in [6]. In addition, the TGI came out at 0.899 µM in assay [7], 0.478 µM in [8] and 1.71 µM in [10].

`CC(C)(C)c1cc(Br)c(O)c(CN(Cc2cc(C(C)(C)C)cc(Br)c2O)C2CCCCC2)c1`: the TGI in [1] was determined as 26.6 µM; in [2] it was 25 µM; in assay [3], 28.8 µM; in assay [4], 24.1 µM; in assay [5], 25.1 µM; in assay [6], 24.2 µM. For the same compound, the TGI in assay [7] is 29.1 µM; in assay [9] it was 28 µM; in assay [10], 25.6 µM.

For `O=C1OC(C(O)CO)C(=O)C1=O` (stereo not drawn), the GI50 in assay [1] was 2940 µM; in assay [2] it was 2460 µM; in assay [3], 2060 µM; in assay [4], 2070 µM; in assay [5], 1850 µM; in [7] it was 2050 µM. Further, the GI50 in assay [8] was 2490 µM; in assay [9], 2530 µM; in assay [10], 3860 µM. Besides, the TGI was more than 10000 µM in assay [1]; 6520 µM in [2]; 4230 µM in assay [3]; 4870 µM in assay [4]; 3460 µM in [5]; 4330 µM in [7]. Also, the values for the TGI in assay [8], in [9] and in assay [10] were 5440 µM, 7090 µM and more than 10000 µM, respectively.

As to `N=C1C(c2nc3ccccc3s2)=C(O)CN1c1cc(C(F)(F)F)ccc1Cl`, the GI50 in assay [1] is 21.3 µM; in assay [2], 8.59 µM; in assay [3] it was 7.69 µM; in assay [5], 9.49 µM; in assay [6] it was 4.47 µM; in assay [7] it was 70.2 µM. Also, the GI50 was 10 µM in assay [8], 15.5 µM in assay [9] and 1.81 µM in assay [10]. For the same compound, the TGI was more than 100 µM in [1]; 62.2 µM in assay [2]; 98.1 µM in assay [3]; more than 100 µM in assay [5]; 40.4 µM in assay [6]; more than 100 µM in assay [7]. The TGI in assay [8] was 52.9 µM; in [9], 69.6 µM; in [10], 4.91 µM.

Consider `CCOC(=O)c1c(C)n(Cc2ccc(Cl)cc2Cl)c2c1c(CN(C)C)c(O)c1[nH]cnc12`, for which the GI50 was 2.37 µM in [1]; 19 µM in assay [2]; 2.74 µM in assay [3]; 21.2 µM in assay [4]; 17.1 µM in [5]; 17.3 µM in [6]. The results for the GI50 in assay [8], in [9] and in assay [10] were 20.2 µM, 15.1 µM and 0.557 µM, respectively. Moreover, the TGI turned out to be 8.18 µM in assay [1]; 33 µM in assay [2]; 13.3 µM in [3]; 42.9 µM in assay [4]; 33.4 µM in assay [5]; 33.5 µM in assay [6]. Besides, the TGI in assay [8] is 36.9 µM; in assay [9], 28.6 µM; in [10], 4.76 µM.

As to `COC1(OC)C2(Cl)C(Cl)=C(Cl)C1(Cl)C1C=CC=CC12` (stereo not drawn), the TGI in [2], in assay [3], in [4], in [5], in [6] and in [7] was more than 100 µM in each case. Also, the TGI in assay [8], in assay [9] and in [10] was more than 100 µM each time.

In the case of `Oc1cccnc1CN1CCCCC1`, the TGI in assay [2], in [3], in [4], in [5], in assay [6] and in assay [7] was more than 100 µM in each case. Moreover, the TGI in assay [8], in assay [9] and in assay [10] was more than 100 µM each time.
